Paper PMC3596387, “Tripolin A, a Novel Small-Molecule Inhibitor of Aurora A Kinase, Reveals New Regulation of HURP's Distribution on Microtubules” (PLoS ONE, 2013)
pIC50: −log10 of the molar value. Like-named read-outs stand apart in the source and are kept apart here.

What was measured:
Type in all cases: biochemical
IGF1R = target: T1, IGF1R (Homo sapiens, UniProt P08069); assay: Z'LYTE kinase selectivity assay
T1 construct: selectivity panel
Description: Z'LYTE kinase selectivity assay on IGF1R

KDR = target: T2, KDR (Homo sapiens, UniProt P35968); assay: Z'LYTE kinase selectivity assay
T2 construct: selectivity panel
Description: Z'LYTE kinase selectivity assay on KDR

FGFR = target: T3, FGFR; assay: Z'LYTE kinase selectivity assay
T3 construct: gene FGFR1; selectivity panel
Description: Z'LYTE kinase selectivity assay on FGFR

EGFR = target: T4, EGFR (Homo sapiens, UniProt P00533); assay: Z'LYTE kinase selectivity assay
T4 construct: selectivity panel
Description: Z'LYTE kinase selectivity assay on EGFR

Aurora B = target: T5, Aurora B (Homo sapiens, UniProt Q96GD4); assay: Z'LYTE kinase selectivity assay
T5 construct: gene AURKB; selectivity panel
Description: Z'LYTE kinase selectivity assay on Aurora B

Aurora A = target: T6, Aurora A (Homo sapiens, UniProt O14965); assay: in vitro kinase assay (Z'LYTE Ser/Thr […] peptide; Easylite luminescence ATP detection)
T6 construct: gene AURKA; full length in pET21d, 6xHis tag (Aurora A-6xHis), E. coli, Ni-NTA purified
T6 sequence (O14965 1-403): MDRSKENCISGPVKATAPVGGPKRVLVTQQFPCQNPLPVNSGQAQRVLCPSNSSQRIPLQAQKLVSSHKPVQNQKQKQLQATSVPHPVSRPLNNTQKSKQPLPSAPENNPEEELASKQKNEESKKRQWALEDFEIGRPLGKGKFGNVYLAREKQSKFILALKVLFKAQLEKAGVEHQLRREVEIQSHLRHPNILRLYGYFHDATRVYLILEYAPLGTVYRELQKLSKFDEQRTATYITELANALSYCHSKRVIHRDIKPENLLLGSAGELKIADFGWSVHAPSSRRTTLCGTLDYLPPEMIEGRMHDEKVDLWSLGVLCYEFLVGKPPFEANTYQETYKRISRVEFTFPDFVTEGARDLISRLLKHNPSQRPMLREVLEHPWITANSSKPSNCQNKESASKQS

T2 sequence (P35968 20-1356): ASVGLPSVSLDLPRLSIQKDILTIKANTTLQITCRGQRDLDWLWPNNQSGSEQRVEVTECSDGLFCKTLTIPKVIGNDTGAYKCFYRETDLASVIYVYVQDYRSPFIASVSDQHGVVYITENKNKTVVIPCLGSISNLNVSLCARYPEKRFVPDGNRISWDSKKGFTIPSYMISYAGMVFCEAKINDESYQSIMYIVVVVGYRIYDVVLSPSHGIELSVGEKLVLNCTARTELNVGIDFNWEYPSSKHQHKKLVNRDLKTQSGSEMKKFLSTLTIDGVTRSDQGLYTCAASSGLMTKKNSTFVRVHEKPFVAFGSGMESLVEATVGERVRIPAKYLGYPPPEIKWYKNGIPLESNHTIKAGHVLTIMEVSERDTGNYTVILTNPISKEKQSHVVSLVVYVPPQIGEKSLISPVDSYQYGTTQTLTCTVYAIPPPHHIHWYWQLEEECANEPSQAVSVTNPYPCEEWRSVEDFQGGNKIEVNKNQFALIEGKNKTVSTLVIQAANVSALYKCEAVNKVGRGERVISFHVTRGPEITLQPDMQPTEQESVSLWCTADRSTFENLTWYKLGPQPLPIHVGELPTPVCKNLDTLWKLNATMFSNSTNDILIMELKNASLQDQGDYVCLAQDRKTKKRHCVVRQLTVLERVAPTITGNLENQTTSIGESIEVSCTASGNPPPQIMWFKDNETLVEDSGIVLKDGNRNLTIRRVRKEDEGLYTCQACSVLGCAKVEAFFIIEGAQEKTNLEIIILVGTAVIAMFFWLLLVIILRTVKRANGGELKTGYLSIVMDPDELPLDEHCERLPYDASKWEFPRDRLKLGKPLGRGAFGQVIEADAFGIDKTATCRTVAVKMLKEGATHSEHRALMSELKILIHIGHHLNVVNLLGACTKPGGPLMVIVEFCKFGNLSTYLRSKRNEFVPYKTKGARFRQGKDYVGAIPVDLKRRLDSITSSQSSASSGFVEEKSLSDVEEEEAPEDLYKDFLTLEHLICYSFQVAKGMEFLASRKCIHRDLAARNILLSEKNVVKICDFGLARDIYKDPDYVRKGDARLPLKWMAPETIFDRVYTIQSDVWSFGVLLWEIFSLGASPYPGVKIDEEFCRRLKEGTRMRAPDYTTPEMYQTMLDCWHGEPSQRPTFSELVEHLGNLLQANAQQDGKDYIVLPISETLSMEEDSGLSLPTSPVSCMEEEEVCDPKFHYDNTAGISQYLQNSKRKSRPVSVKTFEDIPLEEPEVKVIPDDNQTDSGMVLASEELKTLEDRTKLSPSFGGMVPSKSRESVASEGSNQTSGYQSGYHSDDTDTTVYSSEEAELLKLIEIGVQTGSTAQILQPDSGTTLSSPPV
T1 sequence (P08069 31-736): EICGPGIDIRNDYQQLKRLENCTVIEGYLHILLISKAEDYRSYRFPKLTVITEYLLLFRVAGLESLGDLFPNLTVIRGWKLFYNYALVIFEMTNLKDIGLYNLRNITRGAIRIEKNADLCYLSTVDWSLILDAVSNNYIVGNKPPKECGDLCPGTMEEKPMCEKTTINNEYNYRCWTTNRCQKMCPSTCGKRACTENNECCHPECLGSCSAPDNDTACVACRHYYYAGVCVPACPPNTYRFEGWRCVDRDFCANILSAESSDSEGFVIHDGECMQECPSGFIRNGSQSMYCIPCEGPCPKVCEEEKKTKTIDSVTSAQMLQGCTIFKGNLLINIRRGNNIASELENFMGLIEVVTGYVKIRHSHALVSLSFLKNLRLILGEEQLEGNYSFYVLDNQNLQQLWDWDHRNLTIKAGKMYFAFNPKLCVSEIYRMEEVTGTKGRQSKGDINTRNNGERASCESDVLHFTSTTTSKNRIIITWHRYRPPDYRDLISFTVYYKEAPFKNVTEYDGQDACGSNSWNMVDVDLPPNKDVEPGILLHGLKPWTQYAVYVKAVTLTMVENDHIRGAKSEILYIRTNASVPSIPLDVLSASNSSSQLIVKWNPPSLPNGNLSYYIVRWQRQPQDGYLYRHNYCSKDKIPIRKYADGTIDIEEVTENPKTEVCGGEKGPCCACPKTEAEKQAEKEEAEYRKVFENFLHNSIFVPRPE
T1 sequence (P08069 741-1367): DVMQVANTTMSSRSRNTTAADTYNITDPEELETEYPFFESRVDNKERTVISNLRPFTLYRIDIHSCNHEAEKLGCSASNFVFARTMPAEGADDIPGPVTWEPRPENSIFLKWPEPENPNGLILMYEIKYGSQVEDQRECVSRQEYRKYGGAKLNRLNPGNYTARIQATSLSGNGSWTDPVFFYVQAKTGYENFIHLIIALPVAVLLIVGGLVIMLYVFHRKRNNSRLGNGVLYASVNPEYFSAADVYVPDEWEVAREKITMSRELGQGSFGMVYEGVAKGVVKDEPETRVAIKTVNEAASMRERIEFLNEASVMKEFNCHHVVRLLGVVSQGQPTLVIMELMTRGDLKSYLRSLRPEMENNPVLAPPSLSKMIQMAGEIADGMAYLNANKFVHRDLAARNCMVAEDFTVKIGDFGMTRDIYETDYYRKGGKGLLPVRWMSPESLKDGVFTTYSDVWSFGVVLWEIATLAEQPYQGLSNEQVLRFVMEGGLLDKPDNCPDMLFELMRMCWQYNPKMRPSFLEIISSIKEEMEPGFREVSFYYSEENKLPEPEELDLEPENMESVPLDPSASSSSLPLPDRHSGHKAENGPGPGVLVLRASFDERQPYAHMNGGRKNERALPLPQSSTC
T5 sequence (Q96GD4 whole entry): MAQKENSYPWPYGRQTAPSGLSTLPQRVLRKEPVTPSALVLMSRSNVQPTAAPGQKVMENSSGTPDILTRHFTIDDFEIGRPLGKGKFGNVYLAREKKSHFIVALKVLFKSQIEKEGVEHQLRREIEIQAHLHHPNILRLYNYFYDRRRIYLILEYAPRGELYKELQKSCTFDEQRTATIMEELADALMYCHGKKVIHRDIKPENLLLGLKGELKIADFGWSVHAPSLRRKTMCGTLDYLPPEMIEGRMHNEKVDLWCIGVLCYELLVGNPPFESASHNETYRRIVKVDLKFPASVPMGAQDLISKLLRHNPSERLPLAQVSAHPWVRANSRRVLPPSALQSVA
T4 sequence (P00533 25-1210): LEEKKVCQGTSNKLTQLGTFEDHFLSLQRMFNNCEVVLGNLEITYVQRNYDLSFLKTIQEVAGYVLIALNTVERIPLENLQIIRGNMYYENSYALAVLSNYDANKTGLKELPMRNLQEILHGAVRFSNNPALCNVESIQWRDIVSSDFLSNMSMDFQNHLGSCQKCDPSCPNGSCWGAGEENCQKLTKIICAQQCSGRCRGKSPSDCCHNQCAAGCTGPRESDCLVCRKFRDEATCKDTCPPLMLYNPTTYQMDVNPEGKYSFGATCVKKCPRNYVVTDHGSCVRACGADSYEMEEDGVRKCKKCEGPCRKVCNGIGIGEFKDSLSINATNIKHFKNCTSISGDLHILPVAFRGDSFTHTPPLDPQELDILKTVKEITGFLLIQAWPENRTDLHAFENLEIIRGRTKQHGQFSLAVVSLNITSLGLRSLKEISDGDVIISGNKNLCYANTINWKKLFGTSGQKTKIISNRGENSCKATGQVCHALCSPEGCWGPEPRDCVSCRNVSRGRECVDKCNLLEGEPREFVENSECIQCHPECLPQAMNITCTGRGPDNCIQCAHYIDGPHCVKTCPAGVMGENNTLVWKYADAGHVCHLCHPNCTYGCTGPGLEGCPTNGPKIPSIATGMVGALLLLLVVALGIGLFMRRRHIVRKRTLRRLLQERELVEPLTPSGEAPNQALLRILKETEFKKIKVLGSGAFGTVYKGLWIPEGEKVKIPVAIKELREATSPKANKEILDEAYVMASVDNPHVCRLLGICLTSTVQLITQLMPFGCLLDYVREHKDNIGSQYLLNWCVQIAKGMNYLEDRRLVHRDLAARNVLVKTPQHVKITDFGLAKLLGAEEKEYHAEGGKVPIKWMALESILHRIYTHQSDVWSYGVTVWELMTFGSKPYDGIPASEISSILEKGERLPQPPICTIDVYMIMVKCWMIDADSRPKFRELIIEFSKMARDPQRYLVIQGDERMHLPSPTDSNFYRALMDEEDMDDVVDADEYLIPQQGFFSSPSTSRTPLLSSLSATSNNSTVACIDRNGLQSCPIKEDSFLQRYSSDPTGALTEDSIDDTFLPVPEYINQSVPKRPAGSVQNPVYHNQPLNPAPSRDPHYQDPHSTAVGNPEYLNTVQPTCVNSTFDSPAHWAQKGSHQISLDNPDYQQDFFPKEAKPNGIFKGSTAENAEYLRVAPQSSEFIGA

How did the pIC50 (IGF1R; read-out: Tripolin A) turn out when `O=C1Nc2ccccc2C1=Cc1cc(O)ccc1O` [Tripolin A, 3-(2,5-Dihydroxy-benzylidene)-1,3-dihydro-indol-1-one] was run?
The pIC50 was 4.83.

And the pIC50 (KDR; read-out: Tripolin A)?
The pIC50 was 4.75.

And the pIC50 (FGFR; read-out: Tripolin A)?
Its pIC50 is 4.48.

And the pIC50 (EGFR; read-out: Tripolin A)?
The pIC50 was 4.96.

And the pIC50 (Aurora B; read-out: Tripolin A)?
The pIC50 was 5.15.

What about the pIC50 (Aurora A; read-out: Tripolin A) of the same compound?
The pIC50 was 5.82.

How did the pIC50 (IGF1R; read-out: Tripolin B) turn out when `O=C1Nc2ccccc2C1=Cc1cnc[nH]1` [Tripolin B, 3-(3H-Imidazol-4-ylmethylene)-1,3-dihydro-indol-2-one] was run?
The pIC50 was 4.88.

What about the pIC50 (KDR; read-out: Tripolin B) of the same compound?
The pIC50 was 5.19.

What about the pIC50 (FGFR; read-out: Tripolin B) of the same compound?
The pIC50 was 4.42.

And the pIC50 (EGFR; read-out: Tripolin B)?
The pIC50 was 4.14.

And the pIC50 (Aurora B; read-out: Tripolin B)?
Its pIC50 is 5.22.

And the pIC50 (Aurora A; read-out: Tripolin B)?
The pIC50 was 5.60.
